Test results as given in PMC7312762, “Acetylcholinesterase Inhibition of Diversely Functionalized Quinolinones for Alzheimer’s Disease Therapy” (International Journal of Molecular Sciences, 2020).
Where two headings read alike, the source gives them in different places.

Experiments:
Assay type in all cases: biochemical
[1] = biological target: T1, human recombinant acetylcholinesterase (hrAChE) (Homo sapiens, UniProt P22303); assay: hrAChE inhibition, Ellman method (screening and IC50); conditions: for hrAChE inhibition (screening, in words): screening at 1 and 10 µM; for IC50: mean ± standard error of the mean, triplicate determinations; for inhibition at 10 µM: read-out: hrAChE inhibition
T1 construct: made in house; host or cells: Hek293 derivatives (transient transfection, pcDNA3.4), collected from culture supernatant
Description: (§1) The hrAChE and hrBuChE were prepared as recombinant proteins at the University of Hradec Kralove. For their production, the mammalian expression system was used. Briefly, the DNA sequence encoding human AChE and BuChE was obtained from UniProtKB Server (www.uniprot.org, accession numbers: P22303 and P06276) and de novo synthesized as GeneArt Strings DNA fragments by GeneArt Gene Synthesis Service (Thermo Fisher Scientific, Pardubice, Czech Republic). The DNA fragments were PCR-amplified using gene-specific primers, adding the DNA sequence for C-terminal 6× His-tag. The amplicons were inserted into the mammalian pcDNA3.4 vector by TOPO cloning technology, and the final DNA constructs were verified by Sanger sequencing (ABI PRISM 3130xl). For protein expression, the DNA constructs were transiently transfected into Hek293 derivatives. Recombinant proteins were collected from culture supernatant 6 days later and stored at −80 °C for further purification.
(§2) The hrAChE and hrBuChE were purified using a NGC Medium-Pressure Chromatography System (Bio-Rad, USA). The total volume of 6–8 mL of medium containing secreted protein was desalted using 5 mL HiTrap Desalting column (GE Healthcare, Prague, Czech Republic) equilibrated with buffer A (20 mM sodium phosphate buffer, 150 mM NaCl, 15 mM imidazole, and 20% glycerol; pH 7.4). Acquired supernatant was loaded onto a 1 mL HisTrap FF column (GE Healthcare, Prague, Czech Republic) equilibrated with buffer A. Captured proteins were eluted with buffer B (20 mM sodium phosphate buffer, 150 mM NaCl, 500 mM imidazole, and 20% glycerol; pH 7.4). Imidazole was subsequently removed by repeated centrifugation in Amicon Ultra-4 (Ultracel-10K) tube (Merck Millipore). Protein concentration was determined by linearized Bradford method adapted for 96-well plate.
(§3) The catalytic activity of enzymes was determined by standard Ellman method adapted for 96-well plates. […]. The mixture was pre-incubated at 37 °C for 15 min, and subsequently substrate acetylthiocholine iodide (ATChI) or butyrylthiocholine iodide (BuTChI) was added to the final concentration of 1000 µM. The final volume of reaction was 100 µL. The product formed during the reaction 5-thio-2-nitrobenzoic acid (TNB) was determined by following its absorbance at 436 nm. The catalytic activity was evaluated as amount of product (%) formed by enzyme after 10 min of incubation at 37 °C. IC50 values of individual compounds were determined by non-linear regression using GraphPad Prism 7.

[2] = biological target: T2, human recombinant butyrylcholinesterase (hrBuChE) (Homo sapiens, UniProt P06276); assay: hrBuChE inhibition, Ellman method (screening and IC50); conditions: for inhibition at 10 µM: at 10 µM concentration; for IC50: mean ± standard error of the mean, triplicate determinations
T2 construct: made in house; host or cells: Hek293 derivatives (transient transfection, pcDNA3.4), collected from culture supernatant
Description: as §1, §2, §3

hrAChE = biological target: T3, hrAChE (Homo sapiens, UniProt P22303); assay: Inhibition kinetics of hrAChE (Lineweaver-Burk)
T3 construct: made in house; host or cells: Hek293 derivatives (transient transfection, pcDNA3.4), collected from culture supernatant
Description: Compound with the highest inhibition potential against hrAChE was further analysed regarding its inhibition kinetics parameters (inhibition mechanism and inhibitory constant). […]. Inhibition mechanism and kinetic constant were determined by non-linear regression and double reciprocal method by Lineweaver-Burk using GraphPad Prism 7.

T1 sequence (P22303 32-614): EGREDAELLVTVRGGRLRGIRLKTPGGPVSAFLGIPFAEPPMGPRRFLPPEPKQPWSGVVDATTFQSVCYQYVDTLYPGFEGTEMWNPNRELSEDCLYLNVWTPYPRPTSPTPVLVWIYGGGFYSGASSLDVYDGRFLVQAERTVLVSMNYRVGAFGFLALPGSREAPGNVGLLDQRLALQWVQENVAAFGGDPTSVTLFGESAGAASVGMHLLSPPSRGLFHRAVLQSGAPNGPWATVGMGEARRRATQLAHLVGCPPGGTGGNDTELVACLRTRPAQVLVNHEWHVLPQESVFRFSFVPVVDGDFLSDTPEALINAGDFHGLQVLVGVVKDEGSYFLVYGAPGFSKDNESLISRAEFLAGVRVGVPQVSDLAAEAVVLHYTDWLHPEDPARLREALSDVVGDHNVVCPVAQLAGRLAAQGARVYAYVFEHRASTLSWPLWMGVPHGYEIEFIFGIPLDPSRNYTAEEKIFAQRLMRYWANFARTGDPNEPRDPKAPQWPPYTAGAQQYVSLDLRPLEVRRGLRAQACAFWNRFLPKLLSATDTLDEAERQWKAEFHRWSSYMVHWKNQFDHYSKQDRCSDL
T2 sequence (P06276 29-602): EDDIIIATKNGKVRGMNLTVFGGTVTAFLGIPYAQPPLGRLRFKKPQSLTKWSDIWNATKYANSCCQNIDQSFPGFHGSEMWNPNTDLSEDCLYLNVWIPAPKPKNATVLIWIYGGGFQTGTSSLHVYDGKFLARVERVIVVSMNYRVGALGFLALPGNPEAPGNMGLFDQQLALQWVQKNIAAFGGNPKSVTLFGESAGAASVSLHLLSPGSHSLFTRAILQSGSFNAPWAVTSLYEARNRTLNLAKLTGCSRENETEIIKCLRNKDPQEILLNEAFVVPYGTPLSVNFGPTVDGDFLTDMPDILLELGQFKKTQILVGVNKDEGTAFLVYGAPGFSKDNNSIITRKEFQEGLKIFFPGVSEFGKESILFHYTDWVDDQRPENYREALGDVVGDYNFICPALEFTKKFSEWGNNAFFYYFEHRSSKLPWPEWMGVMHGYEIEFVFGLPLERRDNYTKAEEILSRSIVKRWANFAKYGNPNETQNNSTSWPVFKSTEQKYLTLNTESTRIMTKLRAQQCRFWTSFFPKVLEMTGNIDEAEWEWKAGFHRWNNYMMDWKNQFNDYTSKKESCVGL
T3 sequence (P22303 32-614): as the sequence (P22303 32-614) above

Row | SMILES | hrAChE inhibition (screening, in words) [1] | Selectivity Index IC50 (hrBuChE)/IC50 (hrAChE) [1] | IC50 [1] [µM] | inhibition at 10 µM [1] [%] | inhibition at 10 µM [2] [%] | IC50 [2] [µM] | type of hrAChE inhibition (hrAChE; kinetic experiments) | Ki (hrAChE; non-competitive inhibition, ATChI 25-2000 µM) [µM] | inhibition at 10 µM ([1]; at 10 µM concentration) [%]
1 | CN1CCN(CCCCOc2ccc3c(c2)NC(=O)CC3)CC1 [DQN3, 7-[4-(4-Methylpiperazin-1-yl)butoxy]-3,4-dihydroquinolin-2(1H)-one] | low inhibition percentage | – | – | – | – | – | – | – | –
2 | CC(C)N1CCN(CCCCOc2ccc3c(c2)NC(=O)CC3)CC1 [DQN7, 7-[4-(4-Isopropylpiperazin-1-yl)butoxy]-3,4-dihydroquinolin-2(1H)-one] | – | 11 | 1.58 ± 0.15 | 88 to 95 | 45 to 65 | 16.7 ± 0.46 | – | – | –
3 | CN1CCN(CCCCOc2ccc3ccc(=O)[nH]c3c2)CC1 [QN4, 7-[4-(4-Methylpiperazin-1-yl)butoxy]quinolin-2(1H)-one] | low inhibition percentage | – | – | – | – | – | – | – | –
4 | CN1CCN(CCCCCOc2ccc3ccc(=O)[nH]c3c2)CC1 [QN5, 7-[5-(4-Methylpiperazin-1-yl)pentyloxy]quinolin-2(1H)-one] | low inhibition percentage | – | – | – | – | – | – | – | –
5 | CC(C)N1CCN(CCCCOc2ccc3ccc(=O)[nH]c3c2)CC1 [QN8, 7-[4-(4-Isopropylpiperazin-1-yl)butoxy]quinolin-2(1H)-one] | – | 44 | 0.29 ± 0.02 | – | 45 to 65 | 12.7 ± 0.45 | non-competitive | 0.079 | 88 to 95
6 | CC(C)N1CCN(CCCCCOc2ccc3ccc(=O)[nH]c3c2)CC1 [QN9, 7-[5-(4-Isopropylpiperazin-1-yl)pentyloxy]quinolin-2(1H)-one] | – | 7 | 0.96 ± 0.04 | – | 45 to 65 | 6.7 ± 0.32 | – | – | 88 to 95
